Data on 22 compounds can be found in patent publication US6492374B2, “Benzofuran derivatives, their preparation and use” (H. Lundbeck A/S, priority 1998, dated 2002).

Where two headings read alike, the source gives them in different places.

The subject of assay [1] is serotonin reuptake (3H-5-HT uptake into whole rat brain synaptosomes). Kind of assay: Inhibition of 3H-5-HT uptake into rat brain synaptosomes. Type of assay: biochemical. The procedure: Inhibition of ^3H-5HT Uptake Into Rat Brain Synaptosomes
Using this method, the ability of drugs to inhibit the accumulation of ^3H-5-HT into whole rat brain synaptosomes is determined in vitro.

Assay [2] deals with T1, cloned human 5-HT1A receptors (Homo sapiens, UniProt P08908).
T1 construct: expressed in transfected cells; host or cells: HeLa cells (HA7), stably transfected; cell homogenate
T1 sequence (P08908 1-422): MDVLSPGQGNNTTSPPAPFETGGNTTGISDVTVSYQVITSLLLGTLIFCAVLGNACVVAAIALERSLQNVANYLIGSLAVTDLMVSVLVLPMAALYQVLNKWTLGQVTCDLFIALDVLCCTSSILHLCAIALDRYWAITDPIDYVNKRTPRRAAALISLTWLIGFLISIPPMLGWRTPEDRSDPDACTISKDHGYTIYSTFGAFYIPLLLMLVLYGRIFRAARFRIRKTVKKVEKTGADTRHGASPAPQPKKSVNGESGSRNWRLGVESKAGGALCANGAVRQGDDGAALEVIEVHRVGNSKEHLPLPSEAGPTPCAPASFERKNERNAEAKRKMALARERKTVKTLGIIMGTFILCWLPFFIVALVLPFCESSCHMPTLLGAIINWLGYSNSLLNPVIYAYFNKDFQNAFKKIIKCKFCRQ
Briefly: Inhibition of 3H-5-CT binding to human 5-HT1A receptors. The procedure:
Inhibition of ^3H-5CT Binding to Human 5-HT1A Receptors
Human 5-HT1A receptors (40 μg of cell homogenate) were incubated for 15 minutes at 37° C. in 50 mM Tris buffer at pH 7.7 in the presence of ^3H-5-CT. Non-specific binding was determined by including 10 μM of metergoline. The reaction was terminated by rapid filtration through Unifilter GF/B filters on a Tomtec Cell Harvester. Filters were counted in a Packard Top Counter.

The mark [3] stands for this setting: cloned human 5-HT1A receptors expressed in HeLa cells (HA7).

With `C=CCN(CCCC1(c2ccc(F)cc2)OCc2cc(C#N)ccc21)CCc1cc(OC)ccc1OC` (stereo not shown) [Compound 4f, 1-[3-[[2-(2,5-Dimethoxyphenyl)ethyl](prop-2-en-1-yl)amino]propyl]-1-(4-fluorophenyl)-1,3-dihydroisobenzofuran-5-carbonitrile], in assay [1], the “Inhibition of serotonin reuptake % inhibition at 100 nM” value amounted to 4% inh. at 100 nM. The IC50 in assay [2] (setting [3]) was 1.6 nM.

As to `CCN(CCCC1(c2ccc(F)cc2)OCc2cc(C#N)ccc21)CCc1c[nH]c2ccc(Br)cc12` (stereo not shown) [Compound 12ab, 1-[3-[[2-(5-Bromo-1H-indol-3-yl)ethyl]ethylamino]propyl]-1-(4-fluorophenyl)-1,3-dihydroisobenzofuran-5-carbonitrile], in assay [1], the “Inhibition of serotonin reuptake % inhibition at 100 nM” value is listed as 50% inh. at 100 nM. The compound further showed an IC50 in assay [2] (setting [3]) of 20 nM.

With `CCN(CCCC1(c2ccc(F)cc2)OCc2cc(C#N)ccc21)CCc1c[nH]c2c(Cl)cccc12` (stereo not shown) [Compound 12s, 1-[3-[[2-(7-Chloro-1H-indol-3-yl)ethyl]ethylamino]propyl]-1-(4-fluorophenyl)-1,3-dihydroisobenzofuran-5-carbonitrile], the IC50 in assay [1] came to 18 nM; in assay [2] (setting [3]), 7.7 nM.

In the case of `COc1ccccc1OCCCN(C)CCCC1(c2ccc(F)cc2)OCc2cc(C#N)ccc21` (stereo not shown) [Compound 4m], the “Inhibition of serotonin reuptake % inhibition at 100 nM” value in assay [1] turned out to be 74% inh. at 100 nM.

For `CN(CCCC1(c2ccc(F)cc2)OCc2cc(C#N)ccc21)CCc1c[nH]c2c(F)cccc12` (stereo not shown) [Compound 12b, 1-[3-[[2-(7-Fluoro-1H-indol-3-yl)ethyl]methylamino]propyl]-1-(4-fluorophenyl)-1,3-dihydroisobenzofuran-5-carbonitrile], the IC50 in assay [2] is 43 nM.

Take `N#Cc1ccc2c(c1)COC2(CCCN1CCC(c2c[nH]c3cc(Cl)ccc23)CC1)c1ccc(F)cc1` (stereo not shown) [Compound 2o, 1-[3-[4-(6-chloro-1H-Indol-3-yl)piperidinyl]propyl]-1-(4fluorophenyl)-1,3-dihydroisobenzofuran-5-carbonitrile]: in assay [2] (setting [3]), the IC50 was 12 nM.

On to `C=CCN(CCCC1(c2ccc(F)cc2)OCc2cc(C#N)ccc21)CCc1c[nH]c2ccc(Cl)cc12` (stereo not shown) [Compound 13f], for which the “Inhibition of serotonin reuptake % inhibition at 100 nM” value in assay [1] came out at 16% inh. at 100 nM. Besides, the IC50 in assay [2] (setting [3]) was found to be 31 nM.

Take `CC(C)c1ccc2[nH]cc(CCN(CCCC3(c4ccc(F)cc4)OCc4cc(C#N)ccc43)CCOc3ccccc3)c2c1` (stereo not shown) [Compound 13x, 1-[3-[(2-Phenoxyethyl)[2-[5-(2-propyl)-1H-indol-3-yl]ethyl]amino]propyl]-1-(4-fluorophenyl)-1,3-dihydroisobenzofuran-5-carbonitrile]: in assay [2] (setting [3]), the IC50 was 26 nM. This counts as double-digit nanomolar.

Consider `COc1cccc(OCCCN(C)CCCC2(c3ccc(F)cc3)OCc3cc(C#N)ccc32)c1` (stereo not shown) [Compound 4o, 1-(4-Fluorophenyl)-1-[3-[[3-(3-methoxyphenoxy)propyl]methylamino]propyl]-1,3-dihydroisobenzofuran-5-carbonitrile], for which the figures for the IC50 in assay [1] and in assay [2] (setting [3]) were 73 nM and 26 nM, respectively.

As for `C=CCN(CCCc1c[nH]c2ccccc12)CCCC1(c2ccc(F)cc2)OCc2cc(C#N)ccc21` (stereo not shown) [Compound 4t, 1-[3-[[3-(1H-Indol-3-yl)propyl](prop-2-en-1-yl)amino]propyl]-1-(4-fluorophenyl)-1,3-dihydroisobenzofuran-5-carbonitrile], in assay [1], the “Inhibition of serotonin reuptake % inhibition at 100 nM” value is 73% inh. at 100 nM. In addition, in assay [2] (read-out: Inhibition of 3H-5-CT binding % inhibition at 100 nM, at 100 nM, cloned human 5-HT1A receptors expressed in HeLa cells (HA7)), the inhibition at 0.1 µM was 69%.

In turn, `C=CCN(CCCc1c[nH]c2ccc(Cl)cc12)CCCC1(c2ccc(F)cc2)OCc2cc(C#N)ccc21` (stereo not shown) [Compound 13k, 1-[3-[[3-(5-Chloro-1H-indol-3-yl)propyl](prop-2-en-1-yl)amino]propyl]-1-(4-fluorophenyl)-1,3-dihydroisobenzofuran-5-carbonitrile] registered a half-maximal inhibitory concentration (IC50) in assay [2] (setting [3]) of 19 nM.

For `N#Cc1ccc2c(c1)COC2(CCCN1CCN(c2cccc3[nH]ccc23)CC1)c1ccc(F)cc1` (stereo not shown) [Compound 2m, 1-[3-[4-(1H-Indol-4-yl)piperazinyl]propyl]-1-(4fluorophenyl)-1,3-dihydroisobenzofuran-5carbonitrile], the IC50 in assay [2] (setting [3]) amounted to 4.7 nM.

Turning to `Cc1ccc2[nH]cc(CCN(CCCC3(c4ccc(F)cc4)OCc4cc(C#N)ccc43)CCOc3ccccc3)c2c1` (stereo not shown) [Compound 13q, 1-[3-[[2-(5-Methyl-1H-indol-3-yl)ethyl](2-phenoxyethyl)amino]propyl]-1-(4-fluorophenyl)-1,3dihydroisobenzofuran-5-carbonitrile], the IC50 in assay [2] (setting [3]) is 12 nM.

In turn, `N#Cc1ccc2c(c1)COC2(CCCN1CCN(c2ccc3[nH]ccc3c2)CC1)c1ccc(F)cc1` (stereo not shown) [Compound 2n, 1-[3-[4-(1H-Indol-5-yl)piperazinyl]propyl]-1-(4-fluorophenyl)-1,3-dihydroisobenzofuran-5-carbonitrile] showed a half-maximal inhibitory concentration (IC50) in assay [2] (setting [3]) of 15 nM.

In assay [2] (setting [3]), `N#Cc1ccc2c(c1)COC2(CCCN(CCCc1c[nH]c2ccc(F)cc12)CCOc1ccccc1)c1ccc(F)cc1` (stereo not shown) [Compound 13u, 1-[3-[[3-(5-Fluoro-1H-indol-3-yl)propyl](2-phenoxyethyl)amino]propyl]-1-(4-fluorophenyl)-1,3-dihydroisobenzofuran-5-carbonitrile] returned an IC50 of 22 nM.

On to `C=CCN(CCCc1cccc(OC)c1)CCCC1(c2ccc(F)cc2)OCc2cc(C#N)ccc21` (stereo not shown) [Compound 4l], for which, in assay [1], the “Inhibition of serotonin reuptake % inhibition at 100 nM” value was 27% inh. at 100 nM.

On to `N#Cc1ccc2c(c1)COC2(CCCN(CCOc1ccccc1)CCc1c[nH]c2ccc(F)cc12)c1ccc(F)cc1` (stereo not shown) [Compound 13r, 1-[3-[[2-(5-Fluoro-1H-indol-3-yl)ethyl](2-phenoxyethyl)amino]propyl]-1-(4-fluorophenyl)-1,3-dihydroisobenzofuran-5-carbonitrile], for which the IC50 in assay [2] (setting [3]) stood at 8.9 nM.

In the case of `N#Cc1ccc2c(c1)COC2(CCCN(CCCc1c[nH]c2ccccc12)CCOc1ccccc1)c1ccc(F)cc1` (stereo not shown) [Compound 13p, 1-[3-[[3-(1H-Indol-3-yl)propyl](2-phenoxyethyl)amino]propyl]-1-(4-fluorophenyl)-1,3-dihydroisobenzofuran-5-carbonitrile], the IC50 in assay [2] (setting [3]) came out at 23 nM. This IC50 is about 2.6-fold higher than that of the compound before.

On to `Cc1ccc2[nH]cc(CCCN(CCCC3(c4ccc(F)cc4)OCc4cc(C#N)ccc43)CCOc3ccccc3)c2c1` (stereo not shown) [Compound 13t, 1-[3-[[3-(5-Methyl-1H-indol-3-yl)propyl](2-phenoxyethyl)amino]propyl]-1-(4-fluorophenyl)-1,3-dihydroisobenzofuran-5-carbonitrile], for which, in assay [2] (setting [3]), the IC50 worked out at 23 nM.

In assay [2] (setting [3]), `COc1ccccc1N1CCN(CCCC2(c3ccc(F)cc3)OCc3cc(C#N)ccc32)CC1` (stereo not shown) [Compound 2a, 1-(4-Fluorophenyl)-1-[3-[4-(2-methoxyphenyl)piperazinyl]propyl]-1,3-dihydroisobenzofuran-5-carbonitrile] gave an IC50 of 1 nM.

Take `C#CCN(CCCc1c[nH]c2ccccc12)CCCC1(c2ccc(F)cc2)OCc2cc(C#N)ccc21` (stereo not shown) [Compound 4u, 1-[3-[[3-(1H-Indol-3-yl)propyl](prop-2-yl-1-yl)amino]propyl]-1-(4-fluorophenyl)-1,3-dihydroisobenzofuran-5-carbonitrile]: the “Inhibition of serotonin reuptake % inhibition at 100 nM” value in assay [1] is given as 44% inh. at 100 nM.

Take `N#Cc1ccc2c(c1)COC2(CCCN(CCOc1ccccc1)CCc1c[nH]c2c(F)cc(F)cc12)c1ccc(F)cc1` (stereo not shown) [Compound 13v, 1-[3-[[2-(5,7-Difluoro-1H-indol-3-yl)ethyl](2-phenoxyethyl)amino]propyl]-1-(4-fluorophenyl)-1,3-dihydroisobenzofuran-5-carbonitrile]: the IC50 in assay [2] (setting [3]) came out at 23 nM.

Broadly, the IC50 is the concentration at which inhibition is half-maximal. A lower IC50 goes with greater potency in that assay. In general, inhibition refers to the drop in the measured response relative to a control, in per cent.
